Consider six compounds from patent US9028870B2, “Hydrogel-driven drug dosage form” (Bend Research, Inc., priority 1999, dated 2015).

The nature of data set [1]: aqueous solubility as stated for drugs and organic acids.

In brackets after ≈: the same amount, converted by molar mass.

`CC(C(=O)O)c1ccc2c(c1)[nH]c1ccc(Cl)cc12` (stereo not shown) [Drug 6, carprofen]: the solubility in data set [1] (pH 5.9, aqueous buffer) is roughly 15 µg/mL (≈ 54.8 µM).
In the case of “4-[3-[4-(2-methylimidazol-1-yl)phenylthio]phenyl]-3,4,5,6-tetrahydro-2H-pyran-4-carboxamide hemifumarate [Drug 3]”, the solubility in data set [1] (pH 4) is recorded as 3.7 mgA/mL.
Regarding `NC(=O)N1C(=O)/C(=C(\O)c2cccs2)c2cc(Cl)ccc21` [Drug 7, Tenidap], the solubility in “physchem” (pH 3.7, aqueous buffer) came out at 2 µg/mL (≈ 6.24 µM); in the data set “physchem” (pH 7.4, aqueous buffer), 200 µg/mL (≈ 624 µM).
The compound `CCCc1nn(C)c2c(=O)[nH]c(-c3cc(S(=O)(=O)N4CCN(C)CC4)ccc3OCC)nc12` [Drug 1, 1-[4-ethoxy-3-(6,7-dihydro-1-methyl-7-oxo-3-propyl-1H-pyrazolo[4,3-d]pyrimidin-5-yl)phenylsulphony]-4-methylpiperazine] returned a solubility in data set [1] (pH 6, aqueous buffer) of roughly 20 µg/mL (≈ 42.1 µM).
For `O=C(N[C@@H](Cc1ccccc1)[C@@H](O)C(=O)N1C[C@@H](O)[C@@H](O)C1)c1cc2cc(Cl)ccc2[nH]1` [Drug 4, 5-chloro-1H-indole-2-carboxylic acid [(1S)-benzyl-3-((3R,4S)-dihydroxypyrrolidin-1-yl-)-(2R)-hydroxy-3-oxypropyl]amide], the water solubility in data set [1] (water) came to 80 µg/mL (≈ 175 µM).
Compound `O=C1Cc2cc(CCN3CCN(c4nsc5ccccc45)CC3)c(Cl)cc2N1` [Drug 5] showed a solubility in data set [1] (model fasted duodenal solution) of 3 µg/mL (≈ 7.26 µM).
